{"source": "patent US6936572B2", "about": "“Agrochemical formulation aid composition and uses thereof” (Adjuvants Plus Inc., priority 2000, dated 2005)", "key": {"[1]": {"system": "Lambsquarters", "conditions": "21 DAT, spray volume 200 l/ha", "protocol": "(§1) The results shown in Table 3 were obtained by applying the mixture of dicamba technical acid (87%) and the formulation aid to two fields infected with various annual and perennial weeds (indicated in Table 3). The experiments were conducted between the period of September 1998 to August 2000."}, "[2]": {"system": "Pig Weed", "conditions": "21 DAT, spray volume 200 l/ha", "protocol": "as §1"}, "[3]": {"system": "various annual and perennial weeds", "conditions": "21 DAT; spray volume of 200 l/ha; different rates; two fields", "protocol": "as §1"}, "[4]": {"system": "Canada Thistle", "test": "Field control of broad-spectrum weeds with glyphosate technical acid + formulation aid (Example 2)", "assay_type": "in vivo", "conditions": "21 DAT", "protocol": "(§2) Prior to any preparation all spray-mixing and application equipment were cleaned thoroughly by observing cleaning directions provided on the agrochemical labeling and accompanying materials provided by the maker. Half of the required water was placed in a spray tank. A required amount of the formulation aid was added in the spray tank for the required rate of glyphosate application as indicated in Table 1. […] Mixing was continued and remainder of the water was added to the spray tank. Mixing was: continued for another 5-10 minutes. The ready to use herbicide and formulation aid mixture was applied by spraying at the required rate.\n(§3) The formulation aid tested in this example contained about 21.5% by weight aromatic hydrocarbon distillate, about 3.1% by weight 2N-octanol, about 5.7% by weight oleyl-cetyl alcohol, about 3.1% by weight polyoxyethylene (8) nonylphenolethin, about 33.3% by weight polyoxyalkylated fatty alcohol, and about 33.3% by weight ethoxylated tallow amine blend."}, "[5]": {"system": "Catnip", "test": "Field control of broad-spectrum weeds with glyphosate technical acid + formulation aid (Example 2)", "assay_type": "in vivo", "conditions": "21 DAT", "protocol": "as §2, §3"}, "[6]": {"system": "Dandelions", "test": "Field control of broad-spectrum weeds with glyphosate technical acid + formulation aid (Example 2)", "assay_type": "in vivo", "conditions": "21 DAT", "protocol": "as §2, §3"}, "[7]": {"system": "Lambsquarters", "test": "Field control of broad-spectrum weeds with glyphosate technical acid + formulation aid (Example 2)", "assay_type": "in vivo", "conditions": "21 DAT", "protocol": "as §2, §3"}, "[8]": {"system": "Pig Weed", "test": "Field control of broad-spectrum weeds with glyphosate technical acid + formulation aid (Example 2)", "assay_type": "in vivo", "conditions": "21 DAT", "protocol": "as §2, §3"}, "[9]": {"system": "Quackgrass", "test": "Field control of broad-spectrum weeds with glyphosate technical acid + formulation aid (Example 2)", "assay_type": "in vivo", "conditions": "21 DAT", "protocol": "as §2, §3"}, "[10]": {"system": "Sow Thistle", "test": "Field control of broad-spectrum weeds with glyphosate technical acid + formulation aid (Example 2)", "assay_type": "in vivo", "conditions": "21 DAT", "protocol": "as §2, §3"}, "[11]": {"system": "Annual grasses", "test": "Field control of broad-spectrum weeds with glyphosate technical acid + formulation aid (Example 2)", "assay_type": "in vivo, foxtails, annual bluegrass, crabgrass, witchgrass", "conditions": "21 DAT", "protocol": "as §2, §3"}, "[12]": {"system": "various annual and perennial weeds", "test": "Field weed control overall, glyphosate technical acid (Example 2)", "assay_type": "in vivo", "conditions": "21 DAT; different rates; 10 fields", "protocol": "as §2, §3"}, "[13]": {"conditions": "Dicamba 0.140 Kg/ha + formulation aid 1.0 L/ha or + water"}, "[14]": {"conditions": "Dicamba 0.280 Kg/ha + formulation aid 1.0 L/ha or + water"}, "[15]": {"conditions": "glyphosate technical acid (95%) 0.24 Kg or l/ha + formulation aid 0.5 l/ha or + water"}, "[16]": {"conditions": "glyphosate technical acid (95%) 0.53 Kg or l/ha + formulation aid 0.5 l/ha or + water"}, "[17]": {"conditions": "glyphosate technical acid (95%) 0.94 Kg or l/ha + formulation aid 0.9 l/ha or + water"}}, "note": "Where two headings read alike, the source gives them in different places.", "data": [{"molecule": "COc1c(Cl)ccc(Cl)c1C(=O)O", "note": "[Dicamba + water, 3,6-dichloro-2-methoxybenozic acid]", "values": [{"measurement": "Control of Lambsquarters", "setting": "[1]; [13]", "value": 0, "unit": "%"}, {"measurement": "Control of Lambsquarters", "setting": "[1]; [14]", "value": 0, "unit": "%"}, {"measurement": "Control of Pig Weed", "setting": "[2]; [13]", "value": 0, "unit": "%"}, {"measurement": "Control of Pig Weed", "setting": "[2]; [14]", "value": 0, "unit": "%"}, {"measurement": "weed control (in words)", "setting": "[3]", "value": "No weed control"}]}, {"molecule": "O=C(O)CNCP(=O)(O)O", "note": "[Glyphosate + water, N-phosphonomethylglycine]", "values": [{"measurement": "Control of Canada Thistle", "setting": "[4]; [15]", "value": 0, "unit": "%"}, {"measurement": "Control of Canada Thistle", "setting": "[4]; [16]", "value": 0, "unit": "%"}, {"measurement": "Control of Canada Thistle", "setting": "[4]; [17]", "value": 0, "unit": "%"}, {"measurement": "Control of Catnip", "setting": "[5]; [15]", "value": 0, "unit": "%"}, {"measurement": "Control of Catnip", "setting": "[5]; [16]", "value": 0, "unit": "%"}, {"measurement": "Control of Catnip", "setting": "[5]; [17]", "value": 0, "unit": "%"}, {"measurement": "Control of Dandelions", "setting": "[6]; [15]", "value": 0, "unit": "%"}, {"measurement": "Control of Dandelions", "setting": "[6]; [16]", "value": 0, "unit": "%"}, {"measurement": "Control of Dandelions", "setting": "[6]; [17]", "value": 0, "unit": "%"}, {"measurement": "Control of Lambsquarters", "setting": "[7]; [15]", "value": 0, "unit": "%"}, {"measurement": "Control of Lambsquarters", "setting": "[7]; [16]", "value": 0, "unit": "%"}, {"measurement": "Control of Lambsquarters", "setting": "[7]; [17]", "value": 0, "unit": "%"}, {"measurement": "Control of Pig Weed", "setting": "[8]; [15]", "value": 0, "unit": "%"}, {"measurement": "Control of Pig Weed", "setting": "[8]; [16]", "value": 0, "unit": "%"}, {"measurement": "Control of Pig Weed", "setting": "[8]; [17]", "value": 0, "unit": "%"}, {"measurement": "Control of Quackgrass", "setting": "[9]; [15]", "value": 0, "unit": "%"}, {"measurement": "Control of Quackgrass", "setting": "[9]; [16]", "value": 0, "unit": "%"}, {"measurement": "Control of Quackgrass", "setting": "[9]; [17]", "value": 0, "unit": "%"}, {"measurement": "Control of Sow Thistle", "setting": "[10]; [15]", "value": 0, "unit": "%"}, {"measurement": "Control of Sow Thistle", "setting": "[10]; [16]", "value": 0, "unit": "%"}, {"measurement": "Control of Sow Thistle", "setting": "[10]; [17]", "value": 0, "unit": "%"}, {"measurement": "Control of Annual grasses", "setting": "[11]; [15]", "value": 0, "unit": "%"}, {"measurement": "Control of Annual grasses", "setting": "[11]; [16]", "value": 0, "unit": "%"}, {"measurement": "Control of Annual grasses", "setting": "[11]; [17]", "value": 0, "unit": "%"}, {"measurement": "weed control (in words)", "setting": "[12]", "value": "No weed control"}]}]}
